Here are results for two compounds from patent publication US20130022612A1, “METHODS AND COMPOSITIONS FOR MALARIA PROPHYLAXIS” (priority 2004, published 2013).

Series [1] deals with P. berghei sporozoites. The protocol: Panel A illustrates P. berghei sporozoites were metabolically labeled with [35 S]-Cys/Met and then washed and kept on ice (lane 1) or chased with cold medium for two hours at 28° C., in the absence (lane 2) or presence of the indicated protease inhibitors (lanes 3-11). After the chase, sporozoites were lysed, CSP was immunoprecipitated and analyzed by SDS-PAGE and autoradiography (abbreviations: Apr, aprotinin; DCl, 3,4 DCl; Leu, leupeptin; Pep, pepstatin; Phen, 1,10 phenanthroline). Panel B illustrates P. falciparum sporozoites were metabolically labeled as above and then kept on ice (lane 1) or chased with cold medium for ninety minutes in the absence (lane 2) or presence of E-64 (lane 3). Samples were processed as outlined above. Panel C illustrates P. berghei sporozoites were preincubated with buffer (lane 1) or the indicated compounds, washed, metabolically labeled with [^35S]-Cys/Met, lysed, and CSP was immunoprecipitated and analyzed by SDS-PAGE and autoradiography. (Abbreviations: Az=sodium azide).
In addition to the above, pulse-chase metabolic labeling experiments were performed with sporozoites of the human malaria parasite, Plasmodium falciparum. […] In order to insure that the protease inhibitors were not toxic to sporozoites, sporozoites were incubated with the various inhibitors for two hours and then propidium iodide (hereinafter, “PI”) was added, which is a fluorescent molecule that enters permeabilized cells.

Series [2] has as its system CSP cleavage in P. berghei sporozoites. Kind of series: Cell contact assay (CSP cleavage on contact with hepatocytes). The class given is cell-based, Plasmodium berghei. To be noted: experiment 1, no cells, visualized with α-N. Here is the method: Hepa 1-6 cells were seeded on glass coverslips at a density of 2×10^5 cells per coverslip and grown until confluent. P. berghei sporozoites were incubated in DMEM±10 mM E-64 at 4° C. for two hours. Thirty minutes before sporozoites were added to coverslips, Cytochalasin D (CD) was added to all samples (final concentration, […]). Sporozoites were centrifuged onto coverslips (1250×g) for five minutes at 4° C. Coverslips were then brought to 37° C. for two minutes, fixed with 4% paraformaldehyde and stained with either mAb 3D11 followed by anti-mouse Ig FITC or the N-terminal antiserum (1:100) followed by anti-rabbit Ig FITC. […] As a control, sporozoites were spun onto coverslips without cells using the protocol outlined above.

For series [3], the system named is P. berghei sporozoites. Kind of series: Sporozoite gliding motility assay, P. berghei. It is filed as cell-based, Plasmodium berghei. Here is the method:
Glass 8-chambered Lab-tek wells (Nalgene) were coated with 10 μg/ml 3D11 in PBS overnight at 25° C. and then washed three times with PBS. 2×10^4 P. berghei sporozoites were incubated with 50 μM allicin in DMEM without Cys/Met for ten minutes at 28° C., the medium removed and replaced with DMEM/3% BSA containing 50 μM or 4.2 μM allicin before sporozoites were added to the coated Lab-Tek wells. The sporozoites were incubated for one hour at 37° C., the medium was removed, and the wells were fixed with 4% paraformaldehyde, washed, blocked with PBS/1% BSA, and incubated with biotinylated 3D11 followed by Streptavidin-FITC (1:100 dilution; Amersham Pharmacia). All incubations were performed at 37° C. for one hour. Controls included untreated sporozoites and sporozoites added to wells in the presence of 1 μM cytochalasin D. For each group, gliding motility was assessed by determining the percentage of sporozoites associated with trails, and for those sporozoites with trails, counting the number of circles in each trail.

Series [4] concerns sporozoite migration through cells. To be noted: 10 mM E-64, rhodamine-dextran positive cells. Here is the method:
Migration assays were performed as previously described (Mota, M., et al.). Sporozoites were pre-incubated±10 mM E-64 for two hours at 28° C. and added to monolayers of Hepa 1-6 cells in the continued presence of inhibitor with 1 mg/ml rhodamine-dextran, 10,000 MW (Molecular Probes). After one hour at 37° C., the cells were washed, fixed and the number of rhodamine-positive cells in each field was counted.

A further series relates to P. yoelii sporozoites. To be noted: sporozoites preincubated with E-64.
For series [5], the system named is P. falciparum sporozoites. The series is described as follows: Sporozoite invasion assay, P. falciparum on HepG2 cells. It is filed as cell-based, Plasmodium falciparum. The note with it: sporozoites preincubated with E-64, HepG2 cells. Here is the method:
%invasion=total sporozites−extracellular sporozites×100/total sporozites
Hepa 1-6 cells were seeded in Permanox eight-chambered Lab-Tek wells (2.5×10^5/well) and allowed to grow overnight. On the day of the experiment, 5×10^5 P. berghei wild type, RCon or ΔRI sporozoites were added per well. Sporozoites pre-incubated with 10 μM E-64d for 15 minutes at 25° C. were used as controls. For experiments testing the effect of anti-repeat region antibodies on invasion, HepG2 cells were used and P. berghei or P. falciparum sporozoites were added to the cells in the presence of the indicated antibody. After 1 hour at 37° C., cells were washed, fixed, and sporozoites were stained with a double staining assay that distinguishes intracellular from extracellular sporozoites (Renia et al., 1988). To quantify EEF development, cells with sporozoites were grown for an additional 2 days after which they were fixed with methanol, stained with mAb 2E6 followed by goat anti-mouse Ig conjugated to FITC. In all assays, at least 50 fields per well were counted and each point was performed in triplicate.

Series [6] concerns P. berghei sporozoites. The series is described as follows: Propidium iodide toxicity assay on sporozoites. It is filed as cell-based, Plasmodium berghei. The note with it: for toxicity to sporozoites (propidium iodide): ten minutes. Here is the method:
When sporozoites were incubated with specific inhibitors, their concentrations were as follows: 10 […] E-64; 1 mM phenylmethylsulfonyl fluoride (PMSF); 0.3 mM aprotinin; 100 mM 3,4 DCl; 75 mM leupeptin; 100 mM TLCK; 1 mM pepstatin; 1 mM 1,10 phenanthroline; 5 mM EDTA; 0.5% sodium azide. To check for toxicity by propidium iodide (PI) staining, P. berghei sporozoites were incubated in the presence or absence of the various protease inhibitors for two hours at 28° C., PI was then added to a final concentration of […] for five minutes at 28° C. The sporozoites were washed and viewed under a fluorescent microscope.
P. berghei sporozoites were incubated with the indicated concentrations of allicin for ten or sixty minutes at 28° C., washed with DMEM, and then incubated with 1 μg/ml propidium iodide for five minutes at 25° C. The number of fluorescent sporozoites in each sample was counted using a Nikon Eclipse E600 microscope. Control samples consisted of sporozoites that were incubated for sixty minutes at 28° C. in DMEM without allicin and sporozoites that were heat killed at 65° C. for ten minutes.

For series [7] the following is noted: Brodnitz, M. H., et al.; cited from earlier work.
Where [8] appears, read: 50 μM allicin ten minutes, then diluted to 4.2 μM.

Molecules are shown by their SMILES.

Experimental for P. yoelii sporozoites: For assays with P. berghei and P. yoelii, Hepa 1-6 cells (ATCC CRL-1830, American Type Culture Collection, Manassas, Va.), a mouse hepatoma cell line permissive for P. yoelii sporozoite development (Mota, et al. (2000)) was seeded (8×10^4 cells/well) in Lab-Tek permanox chamber slides (Nalgene Nunc Corp., Naperville, II.) and grown until confluent.
For assays with P. falciparum, HepG2 cells (ATCC HB8065, American Type Culture Collection) were used. On the day of the experiment, sporozoites were pre-incubated with DMEM/BSA alone or with the indicated protease inhibitor for two hours at 28° C. and plated on cells in the continued presence of the inhibitor for one hour at 37° C.
In a control, Hepa 1-6 cells were incubated with E-64 for two hours at 37° C., the medium was removed and then untreated P. berghei sporozoites were added. The inhibitors used were: 10 mM E-64; 1 mM PMSF; 75 mM leupeptin; 0.3 mM aprotinin; 100 mM 3,4 DCl; 1 mM pepstatin. […] Cells were then permeabilized with cold methanol and stained again with mAbs 3D11, 2F6 or 2A10 followed by anti-mouse Ig conjugated to FITC. All sporozoites were FITC-positive whereas only extracellular sporozoites stained with rhodamine. The percentage of sporozoites that invaded the cells is calculated using the following equation:

Turning to `CC(C)C[C@H](NC(=O)[C@H]1O[C@@H]1C(=O)O)C(=O)NCCCCN=C(N)N` (relative stereo) [E-64, L-trans-epoxysuccinyl-leucylamide-[4-guanido]-butane], the “CSP synthesis after incubation with inhibitor” value in the series with P. berghei sporozoites [1] is listed as “not affected”. The “percentage staining with the N-terminal antiserum” value in series [2] is on record as 90% ± 4.1. Also, in the series with P. berghei sporozoites [3] (E-64 treated versus untreated sporozoites), the “average number of circles per gliding sporozoite” value was “not different”. Moreover, in the series with P. berghei sporozoites [3] (P. berghei, preincubated with 10 mM E-64), the “percentage of sporozoites that exhibited gliding motility” value is “no effect”. Also, the “sporozoite migration through cells” value in series [4] is reported as “did not inhibit sporozoite migration through cells”. Also, the “effect on invasion by P. yoelii sporozoites” value in the series on P. yoelii sporozoites was “significantly inhibited”. For the same compound, the “effect on invasion by P. falciparum sporozoites” value in series [5] was “significantly inhibited”.
Turning to `C=CCS[S+]([O-])CC=C` (stereo not shown) [allicin], the “number of fluorescent (propidium iodide) sporozoites” value in the series with P. berghei sporozoites [6] (50 μM allicin 10 minutes, then 4.2 μM for 50 minutes) is on record as “did not increase the number of fluorescent sporozoites compared to the untreated control”. The “increase in number of sporozoites taking up propidium iodide” value in the series with P. berghei sporozoites [6] (50 μM allicin, one hour) amounted to 1.5 fold. For the same compound, the “toxicity to sporozoites (propidium iodide)” value in the series with P. berghei sporozoites [6] (50 μM allicin) is listed as “did not kill sporozoites”; with P. berghei sporozoites [6] (allicin concentrations higher than 50 μM), “toxic to the sporozoites even after only ten minutes of exposure”. Moreover, in the series with P. berghei sporozoites [6] (1 or 10 μM allicin for up to one hour), the “percentage of sporozoites that took up propidium iodide” value is recorded as “no different from the untreated control”. In addition, the gliding motility entry with P. berghei sporozoites [3] (setting [8]) is “no effect on gliding motility”; in the series with P. berghei sporozoites [3] (kept in 50 μM allicin for the duration of the assay), “completely inhibited”. Besides, the “percentage gliding and number of circles per trail versus controls” value with P. berghei sporozoites [3] (setting [8]) is reported as “the same”. For the same compound, the stability in vivo result in series [7] was “rapid decomposition in vivo”.
